Laboratory results reported in PMC9495854, “Novel Phenothiazine/Donepezil-like Hybrids Endowed with Antioxidant Activity for a Multi-Target Approach to the Therapy of Alzheimer’s Disease” (Antioxidants, 2022).

Key:
Aβ1-40 aggregation = molecular target: T1, Aβ1-40 aggregation (Homo sapiens, UniProt P05067); experiment: Inhibition of Aβ40 aggregation, ThT fluorescence; type: biochemical; details: inhibitor 10 µM, Aβ40 30 µM, PBS pH 7.4, 2% HFIP, 2 h 25 °C; mean ± SEM
T1 construct: purchased EZBiolab
Description: ThT fluorescence in the presence of Aβ was measured for each compound according a previously described procedure. The samples were co-incubated and mixed in 96-well black, non-binding microplates (Greiner Bio-One GmbH, Frickenhausen, Germany), incubating Aβ40 (EZBiolab, Carmel, IN, USA) at a final concentration of 30 µM with each inhibitors at a final concentration of 10 µM in PBS (pH 7.4) containing 2% 1,1,1,3,3,3-hexafluoro-2-propanol (HFIP). After 2 h at 25 °C, a 25 µM ThT solution was added and fluorescence was determined using the multi-plate reader Tecan Infinite M1000 Pro (Tecan, Cernusco S.N., Italy). The results are reported as mean of three independent experiments ± SEM [13].

[1] = DPPH radical scavenging assay; details: DPPH 100 µM in methanol, 30 min
Description: A previously reported method (Blois) with some modifications (Mishra, Ojha, & Chaudhury, 2012) was used to carry out the DPPH assay in 96-well microtiter plates. Each tested compound was dissolved in methanol, after which a freshly prepared solution of DPPH in methanol (100 µM final concentration) was added. Following vigorous stirring, each mixture was left in the dark for 30 min at room temperature, after which absorbance values for each well were read at 520 nm using a spectrophotometric plate reader (VICTOR^3 V multilabel plate reader, PerkinElmer). Antioxidant activity was determined as RSA% (radical scavenging activity). The value was calculated using following equation: RSA% = 100 × [(Ao − Ai)/Ao], where Ao and Ai represent DPPH absorbance in absence or in presence of antioxidant, respectively. Antiradical curves for calculating the EC50 values were obtained by testing each compound at several concentrations. Values of all parameters are expressed as mean ± SEM of at least three independent measurements in triplicate.

FAAH Human recombinant = molecular target: T2, FAAH Human recombinant (Homo sapiens, UniProt O00519); experiment: FAAH inhibition, fluorometric assay; type: biochemical; details: mean ± SEM; read-out: hFAAH (IC50)
T2 construct: purchased Cayman Chemical
T2 sequence (O00519 1-579): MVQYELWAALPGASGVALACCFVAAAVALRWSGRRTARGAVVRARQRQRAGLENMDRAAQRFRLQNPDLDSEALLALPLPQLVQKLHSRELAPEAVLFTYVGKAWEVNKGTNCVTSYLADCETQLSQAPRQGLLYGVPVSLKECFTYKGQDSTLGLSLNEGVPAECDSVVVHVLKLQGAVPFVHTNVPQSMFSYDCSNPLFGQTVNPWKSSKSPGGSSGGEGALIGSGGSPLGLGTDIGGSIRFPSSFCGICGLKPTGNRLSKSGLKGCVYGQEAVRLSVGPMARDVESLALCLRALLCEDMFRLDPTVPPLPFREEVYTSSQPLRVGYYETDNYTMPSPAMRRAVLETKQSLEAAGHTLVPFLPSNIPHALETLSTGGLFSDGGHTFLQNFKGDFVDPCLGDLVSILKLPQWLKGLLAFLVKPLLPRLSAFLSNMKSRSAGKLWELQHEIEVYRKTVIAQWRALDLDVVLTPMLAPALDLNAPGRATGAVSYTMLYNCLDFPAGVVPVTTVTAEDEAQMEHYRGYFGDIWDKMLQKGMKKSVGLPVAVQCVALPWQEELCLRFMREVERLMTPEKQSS
Description: The fatty acid amide hydrolase inhibition was measured for the final compounds using 96-well black flat-bottom microtiter NBS plates (COSTAR flat black). The total volume was 150 µL: the single hybrid was pre-incubated at different concentrations with the enzyme (FAAH Human recombinant, Cayman Chemical, Ann Arbor, MI, USA) in the specific fluorometric assay buffer (tris-HCl 125 mM, Na2EDTA · 2H2O 1 mM, pH = 9.0) for ten minutes at RT, using an orbital shaker. A 50 μL solution of the substrate (7-amino-4-methyl-2H-1-benzopyran-2-one-5Z,8Z,11Z,14Z-eicosatetraen-amide, at a final concentration of 5 µM) was then added. The plates were then incubated for 1 h at 37 °C in a Tecan Infinite M1000 Pro (Tecan, Cernusco S.N., Italy), reading fluorescence values from each well every 30s (λex = 340 nm, λem = 450 nm). The inhibitor activity was expressed as relative fluorescence units (RFU), using the values obtained from control wells lacking the inhibitor and blank wells lacking both inhibitor and enzyme to calculate percent inhibition values for each well. IC50 values are expressed as mean ± SEM of at least two independent measurements performed in triplicate.

SH-SY5Y cells = experiment: DCFH-DA cell-based antioxidant assay (H2O2-induced oxidation), SH-SY5Y; details: Homo sapiens, SHSY-5Y, 1 h compound, 100 μM H2O2, read-out: DCFDH-DA IC50 ± SEM SHSY-5Y
Description: HepG2 cells were cultured in Eagle’s Minimum Essential Medium (MEM, Euroclone S.p.A., Pero, MI, Italy), supplemented with 10% Fetal Bovine Serum (FBS, Euroclone S.p.A., Pero, MI, Italy), 1% L-glutamine (Euroclone S.p.A., Pero, MI, Italy), 100 U/mL penicillin/streptomycin (Euroclone S.p.A., Pero, MI, Italy), 1% Non-Essential Amino Acids (NEAA, Euroclone S.p.A., Pero, MI, Italy). SH-SY5Y cells were grown in a 1:1 mixture of Dulbecco’s modified Eagle’s medium (DMEM)—high glucose (Euroclone S.p.A., Pero, MI, Italy) and Ham’s F12 Medium (Euroclone S.p.A., Pero, MI, Italy) supplemented with 10% FBS, 1% L-glutamine and 100 U/mL penicillin/streptomycin. For cell assays, cells were trypsinized using Trypsin-EDTA 1X in PBS (Euroclone S.p.A., Pero, MI, Italy).
According to a slightly modified procedure already reported in the literature, the generation of ROS was determined using an oxidation-sensitive fluorescent probe, 2′,7′-dichlorodihydrofluorescein diacetate (DCFH-DA, D6665; Sigma-Aldrich, St. Louis, MO, USA). Briefly, viable cells were seeded in a black 96-well cell culture plate (Costar, Sigma-Aldrich, St. Louis, MO, USA) and after 24 h were incubated with different concentrations (0.1–100 µM) of each compound for 1 h at 37 °C in 5% CO2. […] After washing using PBS, 100 μM H2O2 in medium without serum was added to each well and the cells were incubated for an additional 30 min. The formation of fluorescent dichlorofluorescein (DCF) due to oxidation of DCFH in the presence of ROS, was read at 530 nm using a microplate reader Tecan Infinite M1000 Pro (Tecan, Cernusco S.N., Italy) and DMSO medium was used for control cells. The results are expressed as mean ± SEM of at least three independent measurements in triplicate.

T1 sequence (P05067 672-711 limits assumed): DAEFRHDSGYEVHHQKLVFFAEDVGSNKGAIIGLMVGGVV

Structure (SMILES): COc1cc2c(cc1OC)C(=O)C(CC1CCN(Cc3ccccc3)CC1)C2 (centres unmarked) [Donepezil]
- Aβ1-40 Aggregation (I% at 10 µM) (Aβ1-40 aggregation): 14% ± 7

Structure (SMILES): O=C(O)c1cc(O)c(O)c(O)c1 [Gallic acid, reference compound]
- EC50 (μmol/μmol of DPPH ± SEM) [1]: 0.059 ± 0.003 μmol/μmol of DPPH
- EC50 (μmol/μmol of DPPH ± SEM) ([1]; listed as gallic acid): 0.059 μmol/μmol of DPPH

Structure (SMILES): O=C(Oc1ccc([N+](=O)[O-])cc1)N1CCN(Cc2cccc(Oc3ccccc3)c2)CC1 [JZL195, reference compound]
- IC50 (FAAH Human recombinant): 19 ± 3 nM

Structure (SMILES): O=c1c(O)c(-c2ccc(O)c(O)c2)oc2cc(O)cc(O)c12 [Quercetin, reference compound]
- IC50 (SH-SY5Y cells): 5610 ± 400 nM
